The test system of the assay is Pre-osteoblast cells. The assay is described as follows: Pre-osteoblast cells in oestrogen-free environment, hormone with or without silicon, total protein.

Method: The cells for these respective experiments had also been passaged and maintained in media containing no added silicon (for the subsequent E2 or vehicle alone experiments) or containing 50 micromolar silicon (for the subsequent Si or E2+Si experiments).
Thus in experiments identical to those described above at the 48 hour time point, we investigated the effects of 10^−6 M progesterone instead of oestradiol.

`C[C@]12CC[C@@H]3c4ccc(O)cc4CC[C@H]3[C@@H]1CC[C@@H]2O` [oestradiol]: under “10^-9 M E2, absence of silicon, varying lengths of time, versus baseline (vehicle), FIG. 2”, the total protein concentration result was “no effect”. Regarding `CC(=O)[C@H]1CC[C@H]2[C@@H]3CCC4=CC(=O)CC[C@]4(C)[C@H]3CC[C@]12C` [progesterone], the total protein entry (10^-6 M progesterone together with silicon (50 micromolar), 48 hour time point, FIG. 4) is reported as “modest effect”. As to orthosilicic acid, the total protein result (orthosilicic acid 50 micromolar without E2, oestrogen-free environment, FIG. 2) is listed as “no significant effect”.

The values above are taken from patent US20110311633A1, “Combination of a Silicon Containing Component and a Hormone” (priority 2005, published 2011).
